Measurements: patent publication US20250066735A1, “PREPARATION METHOD OF MESENCHYMAL STEM CELL (MSC) AND APPLICATION THEREOF IN KNEE PRODUCT” (GUANGDONG CELL BIOTECHNOLOGY CO. LTD, priority 2024, published 2025)

Test system: human bone marrow-derived MSCs
Assay: Trypan blue survival rate of MSCs pre-cultivated with additive medium, after H2O2 challenge
Format: cell-based
Details: for Cell survival rate-improving effect (in words): compared among additive compositions, H2O2 challenge; for Cell survival rate: third-generation MSCs cultivated with medium additive, then low-sugar DMEM with 100 mM H2O2 for 1 h, Trypan blue
Protocol: (1) Isolation of bone marrow-derived MSCs from a bone marrow: 20 mL to 40 mL of a human bone marrow was extracted and added to a sterile glass bottle with 3,000 U heparin, and the human bone marrow and the heparin were fully mixed for anticoagulation. Normal saline was added at the same amount as the human bone marrow to the sterile glass bottle, and mixing was conducted thoroughly to obtain diluted human bone marrow. The diluted human bone marrow was added slowly to a Ficoll liquid level with 1 part by volume of a lymphocyte separation solution (Ficoll separation solution) per 2 parts by volume of the diluted human bone marrow to obtain a mixed system. The mixed system was centrifuged at 2,000 r/min and 20° C. in a horizontal centrifuge for 25 min, and bone marrow-derived MSCs were collected from an interface, washed with normal saline 2 to 3 times, suspended with an appropriate amount of a culture medium, and counted.
(2) Primary cultivation of the bone marrow-derived MSCs: The bone marrow-derived MSCs obtained in the step (1) were inoculated at a density of 0.3×10^6/mL in a basal medium, and the primary cultivation was conducted. The basal medium is Dulbecco's Modified Eagle Medium (DMEM, GIBCO company, America). During the primary cultivation, the medium was changed every 2 d to remove non-adherent cells and continuously purify the human bone marrow-derived MSCs. When a cell density reached 80%, the sub-cultivation was conducted. For an experimental group, an additive composition of NOG and quercetin was added to the basal medium to prepare an experimental medium.
The sub-cultivation was conducted until third-generation human bone marrow-derived MSCs were obtained. The third-generation human bone marrow-derived MSCs were further cultivated with the experimental medium for cell transplantation.
(3) A survival rate of the human bone marrow-derived MSCs was detected with Trypan blue. The human bone marrow-derived MSCs obtained in the step (2) (cells cultivated without NOG and quercetin were adopted as a control group) were transferred to a low-sugar DMEM including 100 mM hydrogen peroxide (H2O2), cultivated for 1 h, stained with Trypan blue, and observed under a microscope to count a cell survival rate.

Question: How did the “Cell survival rate-improving effect (in words)” value turn out when O=c1c(O)c(-c2ccc(O)c(O)c2)oc2cc(O)cc(O)c12 [compound 1, quercetin] was run?
Answer: inferior cell survival rate-improving effect

Question: What about the Cell survival rate of the same molecule?
Answer: 50.2 ± 0.7%

Question: How did the “Cell survival rate-improving effect (in words)” value turn out when O=C(O)CNC(=O)C(=O)O [compound 2, N-oxalylglycine] was run?
Answer: inferior cell survival rate-improving effect

Question: What about the Cell survival rate of the same molecule?
Answer: 52.3 ± 0.8%
